According to US6706740B2, “Fungicidal heterocyclic aromatic amides and their compositions, methods of use and preparation” (Dow AgroSciences LLC, priority 1999, dated 2004):

Experiments:
[1] = test system: Stagonospora nodorum (Leptosphaeria nodorum—LEPTNO); assay: In vitro fungal growth inhibition, Stagonospora nodorum (LEPTNO); format: cell-based; settings: Leptosphaeria; 25 ppm in the growth medium; read-out: LEPTNO in vitro Growth Inhibition
[2] = test system: Phytophthora infestans—PHYTIN; assay: whole plant or invertebrate; format: in vivo; settings: Phytophthora, in Solanum lycopersicum, 24 h, read-out: PHYTIN in vivo 1 Day Protectant
[3] = test system: Rhizoctonia solani (RHIZSO); assay: microbe, parasite or virus in culture; format: cell-based; settings: Rhizoctonia solani, read-out: RHIZSO in vitro Growth Inhibition
[4] = test system: Mycosphaerella graminicola (Septoria tritici—SEPTTR); assay: In vitro fungal growth inhibition, Mycosphaerella graminicola (SEPTTR); format: cell-based; settings: Zymoseptoria tritici; 25 ppm in the growth medium; read-out: SEPTTR in vitro Growth Inhibition
[5] = test system: Septoria tritici—SEPTTR; assay: Leaf Blotch of Wheat, in vivo whole plant, 24 Hour Protectant; settings: Zymoseptoria tritici, 24 h, wheat plants sprayed at 100 ppm, inoculated after 24 hours; control of fungal infection vs untreated plants; read-out: SEPTTR in vivo 1 Day Protectant
[6] = test system: Puccinia recondita—PUCCRT; assay: Brown Rust of Wheat, in vivo whole plant, 24 Hour Protectant; settings: Puccinia; wheat plants sprayed at 100 ppm, inoculated after 24 hours; control of fungal infection vs untreated plants; read-out: PUCCRT in vivo 1 Day Protectant
[7] = test system: Phytophthora infestans (PHYTIN); assay: microbe, parasite or virus in culture; format: cell-based; settings: Phytophthora infestans, read-out: PHYTIN in vitro Growth Inhibition
[8] = test system: Erysiphe graminis—ERYSGT; assay: Powdery Mildew of Wheat, in vivo whole plant, 24 Hour Protectant; settings: Erysiphe; wheat plants sprayed at 100 ppm, inoculated after 24 hours; control of fungal infection vs untreated plants; read-out: ERYSGT in vivo 1 Day Protectant
[9] = test system: Leptosphaeria nodorum—LEPTNO; assay: Glume Blotch of Wheat, in vivo whole plant, 24 Hour Protectant; settings: wheat plants sprayed at 100 ppm, inoculated after 24 hours, control of fungal infection vs untreated plants; for pest or weed control at 100 ppm: Leptosphaeria, read-out: LEPTNO in vivo 1 Day Protectant
[10] = test system: Magnaporthe grisea (Pyricularia oryzae—PYRIOR); assay: microbe, parasite or virus in culture; format: cell-based; settings: Pyricularia oryzae, read-out: PYRIOR in vitro Growth Inhibition
[11] = test system: Ustilago maydis (USTIMA); assay: microbe, parasite or virus in culture; format: cell-based; settings: Mycosarcoma maydis, read-out: USTIMA in vitro Growth Inhibition

SMILES | inhibition at 25 ppm [1] [%] | pest or weed control at 100 ppm [2] [%] | inhibition at 25 ppm [3] [%] | melting point | inhibition at 25 ppm [4] [%] | pest or weed control at 100 ppm [5] [%] | pest or weed control at 100 ppm [6] [%] | inhibition at 25 ppm [7] [%] | pest or weed control at 100 ppm [8] [%] | pest or weed control at 100 ppm [9] [%] | inhibition at 25 ppm [10] [%] | inhibition at 25 ppm [11] [%] | LEPTNO in vivo 1 Day Protectant [9]
Cc1nc(O)c(C(=O)NC2CC(C)(C)CC(C)(C)C2)cc1Cl [Compound 530] | < 80 | < 25 | < 80 | 329 to 331 °C | < 80 | 25 to 74 | 25 to 74 | < 80 | < 25 | 25 to 74 | < 80 | < 80 | 
Cc1nc(O)c(C(=O)N[C@H]2COC(=O)[C@H](Cc3ccccc3)[C@@H](OC(=O)C(C)C)[C@H](C)OC2=O)cc1Cl [Compound 531] | < 80 | < 25 | < 80 | 103 to 108 °C | < 80 | 25 to 74 | < 25 | < 80 | 25 to 74 | 25 to 74 | < 80 | < 80 | 
CC(C)C(=O)O[C@H]1[C@H](C)OC(=O)[C@@H](NC(=O)c2nnccc2O)COC(=O)[C@@H]1Cc1ccccc1 [Compound 532] | < 80 | 25 to 74 | < 80 | 233 °C (dec.) | < 80 | 25 to 74 | 25 to 74 | < 80 | 25 to 74 | 25 to 74 | < 80 | < 80 | 
CC1(C)CC(NC(=O)c2nccnc2O)CC(C)(C)C1 [Compound 533] | < 80 | 25 to 74 | < 80 | 248 to 250 °C (dec.) | < 80 | 25 to 74 | 25 to 74 | < 80 | < 25 | 25 to 74 | < 80 | < 80 | 
O=C(Nc1ccc(Oc2cccc(C(F)(F)F)c2)cc1)c1nccnc1O [Compound 535] | < 80 | < 25 | > 80 | 239 to 243 °C (dec.) | < 80 | 25 to 74 | 25 to 74 | < 80 | < 25 | 25 to 74 | < 80 | < 80 | 
Cc1nc(O)c(C(=O)N[C@H]2COC(=O)[C@H](Cc3ccccc3)[C@@H](OC(=O)C(C)C)[C@H](C)OC2=O)nc1C [Compound 536] | < 80 | < 25 | < 80 | 80 to 83 °C | > 80 | 25 to 74 | 25 to 74 | < 80 | < 25 |  | < 80 | < 80 | + +
COc1nc(O)c(C(=O)N[C@H]2COC(=O)[C@H](Cc3ccccc3)[C@@H](OC(=O)C(C)C)[C@H](C)OC2=O)nc1Cl [Compound 537] | < 80 | < 25 | < 80 | 84 to 86 °C | < 80 | 25 to 74 | 25 to 74 | < 80 | < 25 |  | < 80 | < 80 | + +
CC(C)C(=O)O[C@H]1[C@H](C)OC(=O)[C@@H](NC(=O)c2nc(Cl)c(Cl)nc2O)COC(=O)[C@@H]1Cc1ccccc1 [Compound 538] | < 80 | < 25 | < 80 | 108 to 110 °C | < 80 | 25 to 74 | 25 to 74 | < 80 | < 25 | 25 to 74 | < 80 | < 80 | 
CC1(C)CC(NC(=O)c2cncnc2O)CC(C)(C)C1 [Compound 539] | < 80 | < 25 | < 80 | 263 to 265 °C | > 80 | 25 to 74 | 25 to 74 | < 80 | < 25 | 25 to 74 | < 80 | < 80 | 
CC(C)C(=O)O[C@H]1[C@H](C)OC(=O)[C@@H](NC(=O)c2cncnc2O)COC(=O)[C@@H]1Cc1ccccc1 [Compound 540] | < 80 | < 25 | < 80 | 195 °C (dec.) | < 80 | 25 to 74 | < 25 | < 80 | < 25 | < 25 | < 80 | < 80 | 
Cc1ncc(C(=O)NC2CC(C)(C)CC(C)(C)C2)c(O)n1 [Compound 541] | < 80 | < 25 | < 80 | > 300 °C | < 80 | 25 to 74 | < 25 | < 80 | < 25 | < 25 | < 80 | < 80 | 
Cc1ncc(C(=O)N[C@H]2COC(=O)[C@H](Cc3ccccc3)[C@@H](OC(=O)C(C)C)[C@H](C)OC2=O)c(O)n1 [Compound 542] | < 80 | < 25 | < 80 | 220 °C (dec.) | < 80 | 25 to 74 | < 25 | < 80 | < 25 | < 25 | < 80 | < 80 | 
CC1(C)CC(NC(=O)c2nnc(O)nc2O)CC(C)(C)C1 [Compound 543] | < 80 | < 25 | < 80 | 283 to 285 °C | < 80 | < 25 | < 25 | < 80 | < 25 | 25 to 74 | < 80 | < 80 | 
CSc1nnc(C(=O)NC2CC(C)(C)CC(C)(C)C2)c(O)n1 [Compound 545] | < 80 | 25 to 74 | < 80 | 265 to 268 °C | < 80 | 25 to 74 | 25 to 74 | > 80 | < 25 | 25 to 74 | < 80 | < 80 | 
CSc1nnc(C(=O)NC2CCCCCCC2)c(O)n1 [Compound 546] | < 80 | < 25 | < 80 | 208 to 213 °C | < 80 | 25 to 74 | 25 to 74 | > 80 | < 25 | 25 to 74 | < 80 | < 80 | 
CSc1nnc(C(=O)Nc2ccc(Oc3cccc(C(F)(F)F)c3)cc2)c(O)n1 [Compound 548] | < 80 | 25 to 74 | < 80 | 261 to 265 °C | < 80 | 25 to 74 | < 25 | < 80 | < 25 | 25 to 74 | < 80 | < 80 | 
